{"source": "paper PMC5750217", "about": "(Nature Communications, 2018)", "key": {"[1]": {"target": "T1, A1-T458S (mutant ASCT1) (Homo sapiens, UniProt P43007, T458S)", "T1 construct": "expressed in transfected cells; host or cells: Xenopus laevis oocytes (cRNA injection)", "T1 sequence (P43007 1-532 T458S)": "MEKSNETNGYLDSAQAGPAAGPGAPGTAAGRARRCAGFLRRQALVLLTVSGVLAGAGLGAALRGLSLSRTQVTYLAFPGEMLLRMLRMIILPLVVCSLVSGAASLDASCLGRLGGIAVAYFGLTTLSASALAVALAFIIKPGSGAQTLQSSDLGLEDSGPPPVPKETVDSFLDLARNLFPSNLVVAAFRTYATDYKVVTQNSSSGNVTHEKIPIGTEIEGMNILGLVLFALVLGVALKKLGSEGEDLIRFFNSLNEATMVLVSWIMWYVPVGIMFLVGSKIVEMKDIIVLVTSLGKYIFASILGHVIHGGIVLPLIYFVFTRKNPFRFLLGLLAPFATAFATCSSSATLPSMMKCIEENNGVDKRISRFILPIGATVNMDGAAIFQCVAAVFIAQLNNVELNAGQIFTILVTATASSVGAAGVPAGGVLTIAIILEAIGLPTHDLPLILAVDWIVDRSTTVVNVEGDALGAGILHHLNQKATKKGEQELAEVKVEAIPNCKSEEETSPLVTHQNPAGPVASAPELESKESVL", "test": "Two electrode voltage clamp, substrate-activated anion current in oocytes expressing A1-T458S", "format": "cell-based", "conditions": "NO3−-containing buffer, current at +60 mV, dash = substrate did not generate currents", "experimental": "All chemicals were obtained from Sigma unless otherwise stated. Stage V oocytes were harvested from female Xenopus laevis (frogs) which were obtained from Nasco (Fort Alkinson, USA). Frogs were anaesthetised with 6.5 mM tricaine neutralised with 7.14 mM sodium bicarbonate. After making an incision in the abdomen of the frog, ovarian sacs were removed and stored in OR-2 buffer (82.5 mM NaCl, 2 mM KCl, 1 mM MgCl2, 5 mM hemisodium HEPES, pH 7.5). This surgical procedure follows a protocol (#2016/970) approved by the University of Sydney Animal Ethics Committee under the Australian Code of Practice for the Care and Use of Animals for Scientific Purposes. […]\nAfter 2–4 days of microinjection, current recordings were made using the two electrode voltage clamp technique with a Geneclamp 500 amplifier (Axon Instruments, Foster City, CA) interfaced with a MacLab 2e chart recorder (ADI Instruments, Sydney, Australia) using the chart software, and a Digidata 1322A (Axon Instruments) controlled by an IBM-compatible computer using the pClamp software (version 10, Molecular Devices, Union City, CA). […] Current–voltage relationships were calculated by subtracting steady state current measurements in the absence of substrate from corresponding current measurements in the presence of substrate. […]"}, "[2]": {"target": "T2, A1-T458S/T459C (mutant ASCT1) (Homo sapiens, UniProt P43007, T458S/T459C)", "T2 construct": "expressed in transfected cells; host or cells: Xenopus laevis oocytes (cRNA injection)", "T2 sequence (P43007 1-532 T458S/T459C)": "T1 sequence (P43007 1-532 T458S) with T459C", "test": "Radiolabelled uptake in oocytes expressing A1-T458S/T459C", "format": "cell-based", "conditions": "10 µM L-[3H]substrate, 10 min, room temperature", "experimental": "Uptake of L-[^3H]amino acids (PerkinElmer Life Sciences) was measured in oocytes expressing wild-type and mutant ASCT1, and uninjected oocytes. Five oocytes were incubated in Cl^−-containing buffer with 10 µM L-[^3H]amino acids at room temperature. After 10 min, uptake was terminated by three rapid washes in ice-cold Cl^−-containing buffer followed by lysis in 50 mM NaOH and 1% SDS. L-[^3H]amino acids were measured by scintillation counting using a Trilux beta counter (PerkinElmer Life Sciences)."}}, "note": "Residue numbers refer to the chain shown, from its start.", "data": [{"smiles": "NC(=O)CC[C@H](N)C(=O)O", "note": "[L-glutamine]", "values": [{"measurement": "EC50 of substrate-activated current", "setting": "[1]", "value": "does not respond"}, {"measurement": "Radiolabelled substrate uptake into oocytes (in words)", "setting": "[2]", "value": "robust accumulation"}]}, {"smiles": "N[C@@H](CO)C(=O)O", "note": "[L-serine]", "values": [{"measurement": "EC50", "setting": "[1]", "value": "106 ± 4", "unit": "µM"}, {"measurement": "Radiolabelled substrate uptake into oocytes (in words)", "setting": "[2]", "value": "robust accumulation"}]}]}
